Literature values as cited in US20260076921A1, “Transdermal Pharmaceutical Formulations for the Treatment of Multiple Sclerosis” (Pike Therapeutics Inc., priority 2020, published 2026).
pKi: −log10 of the molar value. “And” between values parts separate entries of the source, which are not always exact repeats. Equal entries are not always repeated.

Experiments:
[1] = target: CB1
[2] = 6.2 mg/day dose
[3] = literature ranges

Row | SMILES | pKi [1] | effect on knee-joint swelling [2] | Oral bioavailability [3]
1 | CCCCCn1cc(C(=O)c2cccc3cccc(Br)c23)c2ccccc21 [JWH-424] | 7.68 | – | –
2 | CCCCC/C=C\C/C=C\C/C=C\C/C=C\CCCC(=O)N[C@H](C)CO [Methanandamide] | 7.75 | – | –
3 | CCCCCn1cc(C(=O)c2ccc(Cl)c3ccccc23)c2ccccc21 [JWH-398] | 8.64 | – | –
4 | C=C(C)[C@@H]1CCC(C)=C[C@H]1c1c(O)cc(CCCCC)cc1O [CBD, 2-[(1R,6R)-6-isopropenyl-3-methylcyclohex-2-en-1-yl]-5-pentylbenzene-1,3-diol] | – | very effective to reduce knee-joint swelling | 13-19% and 5-6%
